What all share (assay): NCI tumour cell line growth inhibition, 48 h
Assay [1] deals with COLO 205.
Assay [2] relates to EKVX.
Assay [3] relates to HCC 2998.
Assay [4] concerns HT-29.
Assay [5] relates to IGROV-1.
In assay [6] the test system is K562.
Assay [7] concerns KM12.
In assay [8] the test system is M14.
For assay [9], the system named is MCF7.
The subject of assay [10] is MDA-MB-231.
The test system of assay [11] is MDA-MB-435.
Assay [12] deals with MOLT-4.
Assay [13] has as its system NCI/ADR-RES.
For assay [14], the system named is SF-268.
The test system of assay [15] is SK-MEL-28.
The subject of assay [16] is SK-OV-3.
The test system of assay [17] is SNB-75.
Assay [18] concerns SW-620.
The test system of assay [19] is UACC-62.
The test system of assay [20] is BT-549.

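Five concentrations, 48 hours, 96-well plates. GI50: concentration for 50% inhibition of growth.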 The source made the active and inactive calls. Cut-off read from the data, not from the text of the source: active = GI50 up to about 1.1 µM and inactive = higher.

For `Oc1cc(-c2ccccc2Cl)nc2cc3c(cc12)OCO3`, the GI50 is 0.0507 µM (active) in assay [1]; 0.155 µM (active) in assay [2]; 0.144 µM (active) in assay [3]; 0.0676 µM (active) in [4]; 0.173 µM (active) in assay [5]; 0.0399 µM (active) in assay [6]. Besides, the GI50 in [7] is 0.0486 µM (active); in assay [8], 0.11 µM (active); in [9], 0.0518 µM (active); in [10], 0.143 µM (active); in [11] it was 0.0146 µM (active); in [12], 0.123 µM (active). The GI50 in [13] was 0.0575 µM (active); in assay [14], 1.64 µM (inactive); in assay [15], 0.0638 µM (active); in assay [16] it was 0.17 µM (active); in assay [17] it was 30.7 µM (inactive); in assay [18], 0.0698 µM (active). Moreover, the GI50 in assay [19] is 0.0574 µM (active).

Take `c1ccc2c(c1)[nH]c1c3ccccc3sc21`: the GI50 in assay [1] is > 100 µM (inactive); in assay [2], 26.4 µM (inactive); in assay [3] it was > 100 µM (inactive); in assay [4], > 100 µM (inactive); in assay [5], > 100 µM (inactive); in assay [6], > 100 µM (inactive). The GI50 was > 100 µM (inactive) in [7]; > 100 µM (inactive) in assay [8]; 24.9 µM (inactive) in assay [9]; > 100 µM (inactive) in [10]; 99.1 µM (inactive) in assay [11]; > 100 µM (inactive) in assay [12]. The GI50 is > 100 µM (inactive) in assay [13]; > 100 µM (inactive) in [14]; > 100 µM (inactive) in [15]; > 100 µM (inactive) in [16]; 8.41 µM (inactive) in [17]; > 100 µM (inactive) in [18]. The GI50 in [19] was > 100 µM (inactive).

Take `O=C(O)CN1CCN2CCCCCN(CC1)CCN(CC(=O)O)CC2`: the GI50 is > 100 µM (inactive) in assay [20]; > 100 µM (inactive) in assay [1]; > 100 µM (inactive) in assay [2]; 31.2 µM (inactive) in assay [4]; > 100 µM (inactive) in [5]; > 100 µM (inactive) in [6]. For the same compound, the GI50 was 84.7 µM (inactive) in [7]; > 100 µM (inactive) in [8]; > 100 µM (inactive) in [9]; > 100 µM (inactive) in assay [10]; > 100 µM (inactive) in assay [11]; 22.1 µM (inactive) in assay [13]. The GI50 in assay [15] was > 100 µM (inactive); in assay [16], > 100 µM (inactive); in [17], 11.4 µM (inactive); in [18], 83.9 µM (inactive); in assay [19], > 100 µM (inactive).

In the case of `CC(C)(C)C(=O)Oc1ccc(/C=C/C(=O)c2ccc(OC(=O)C(C)(C)C)cc2)cc1`, the GI50 was 69.7 µM (inactive) in assay [1]; 81.1 µM (inactive) in [2]; > 100 µM (inactive) in [3]; 47.3 µM (inactive) in [4]; > 100 µM (inactive) in [5]; 26.3 µM (inactive) in assay [6]. In addition, the GI50 in [7] is 16.6 µM (inactive); in assay [8] it was > 100 µM (inactive); in assay [9], 46.5 µM (inactive); in assay [10], > 100 µM (inactive); in [11], 55.2 µM (inactive); in assay [12], 24.4 µM (inactive). Besides, the GI50 in [13] is 27.5 µM (inactive); in assay [14], 74 µM (inactive); in assay [15], 97.3 µM (inactive); in [16], > 100 µM (inactive); in [17], 64.9 µM (inactive); in assay [18] it was > 100 µM (inactive). In addition, the GI50 in [19] is > 100 µM (inactive).

With `Cc1ccc(Nc2nc(=O)c3c4ccccc4n(C(=O)OC(C)(C)C)c3s2)cc1`, the GI50 in [20] is 26.6 µM (inactive); in assay [1], 35.4 µM (inactive); in assay [2], 29.1 µM (inactive); in assay [4], 30.1 µM (inactive); in assay [5], 21.9 µM (inactive); in [6] it was 27.4 µM (inactive). In addition, the GI50 in assay [7] was 16.7 µM (inactive); in [8], 14.7 µM (inactive); in assay [10] it was 33.1 µM (inactive); in assay [11] it was 4.9 µM (inactive); in [12], 53 µM (inactive); in [13], 10.6 µM (inactive). The GI50 in [14] was 20.6 µM (inactive); in assay [15], 44.9 µM (inactive); in assay [16], > 100 µM (inactive); in [17] it was > 100 µM (inactive); in assay [18] it was 28.4 µM (inactive); in assay [19], 18.5 µM (inactive).

Consider `O=c1c2cc([N+](=O)[O-])ccc2[nH]n1Cc1ccccn1`, for which the GI50 in [1], in [2], in [3], in assay [4], in assay [5] and in [6] was > 100 µM (inactive) throughout. Also, the GI50 in [7], in [8], in assay [10], in assay [11], in [12] and in [13] was > 100 µM (inactive) throughout. In addition, the GI50 in assay [14], in [15], in assay [17], in assay [18] and in [19] was > 100 µM (inactive) throughout.

On to `C#CCn1c(=O)c2ccccc2n(CC#C)c1=O`, for which the GI50 in [1], in assay [2], in assay [3], in [4], in assay [5] and in assay [6] was > 10 µM (inactive) each time. Further, the GI50 in assay [7], in assay [8], in assay [9], in assay [10], in assay [11] and in assay [12] was > 10 µM (inactive) throughout. Besides, the GI50 in assay [13], in assay [14], in [15], in assay [16], in assay [17] and in assay [18] was > 10 µM (inactive) in each case.

In the case of `COC(=O)c1cccc2c3ccccc3c3ccccc3c12`, the GI50 in assay [1] was 16.6 µM (inactive); in assay [2] it was > 100 µM (inactive); in assay [3] it was 43.1 µM (inactive); in [4] it was 29.5 µM (inactive); in [5] it was 62.8 µM (inactive); in [6] it was 29 µM (inactive). The GI50 in [7] is 39.5 µM (inactive); in assay [8] it was 28.5 µM (inactive); in [12], 24.5 µM (inactive); in assay [14] it was 37.2 µM (inactive); in assay [15] it was 41.5 µM (inactive); in [16] it was 37.2 µM (inactive). In addition, the figures for the GI50 in [17], in assay [18] and in assay [19] were 26.9 µM (inactive), 43.5 µM (inactive) and 24.3 µM (inactive), respectively.

Take `COc1ccc(C2=Nn3c(nnc3-c3ccccc3)S/C2=C\c2ccc(-c3ccc([N+](=O)[O-])cc3)o2)cc1`: the GI50 is 26.2 µM (inactive) in assay [20]; 25.8 µM (inactive) in assay [1]; 50.9 µM (inactive) in [2]; 28 µM (inactive) in assay [3]; 26.4 µM (inactive) in [4]; 56.9 µM (inactive) in [5]. Besides, the GI50 in assay [6] is 13.3 µM (inactive); in [7], 23.2 µM (inactive); in assay [8], 25.4 µM (inactive); in assay [9], 15.1 µM (inactive); in assay [11] it was 5.83 µM (inactive); in [12], 11.3 µM (inactive). For the same compound, the GI50 in assay [13] is 25.2 µM (inactive); in assay [14], 28.8 µM (inactive); in assay [15] it was 69.7 µM (inactive); in assay [16], 34.4 µM (inactive); in assay [18] it was 24.2 µM (inactive); in [19] it was 48.3 µM (inactive).

In the case of `Cc1ccc(S(=O)(=O)/N=C(\NN)Nc2ccc(Cl)cc2)cc1`, the GI50 in assay [20], in [1], in [2], in [4], in assay [5] and in [6] was > 100 µM (inactive) each time. Further, the GI50 in [7], in [8], in [9], in assay [10], in [12] and in assay [13] was > 100 µM (inactive) each time. For the same compound, the GI50 in assay [15] is > 100 µM (inactive); in assay [16] it was > 100 µM (inactive); in [17] it was 37.8 µM (inactive); in assay [18] it was > 100 µM (inactive); in [19], > 100 µM (inactive).

With `Cc1ccc(S(=O)(=O)N/N=C2/CCC3(O)CC2(C)CCC2[C@H]3CC2(C)C)cc1` (stereo not given in full), the GI50 in assay [20] was 32.1 µM (inactive); in assay [1], 16.3 µM (inactive); in assay [2] it was 31.7 µM (inactive); in [4], 33.6 µM (inactive); in [5], 23.5 µM (inactive); in assay [6], 16.9 µM (inactive). Further, the GI50 was 32.6 µM (inactive) in [7]; 43.4 µM (inactive) in assay [8]; 35.5 µM (inactive) in assay [9]; 27.8 µM (inactive) in assay [11]; 11.4 µM (inactive) in assay [12]; 28.2 µM (inactive) in assay [13]. Moreover, the GI50 in assay [14] is 68.1 µM (inactive); in assay [15], 24.9 µM (inactive); in [16], 32.4 µM (inactive); in [17], 21.4 µM (inactive); in assay [18], 27.9 µM (inactive); in assay [19], 20.3 µM (inactive).
